Measured values as given in paper PMC7083851, “Extended pharmacodynamic responses observed upon PROTAC-mediated degradation of RIPK2” (Communications Biology, 2020).
Several values for one entry are separate records, joined by “and”; a condition that tells them apart may be missing. Identical values can stand only once.

What was measured:
[1] = test system: spontaneous IL-1β, IL-6, and TNFα release; assay: Spontaneous cytokine release (IL-1β, IL-6, TNFα) from ulcerative colitis patient intestinal biopsies; type: cell-based, human; conditions: for IL-1b (Ctrl=DMSO = 100) / IL-6 (Ctrl=DMSO = 100) / TNFa (Ctrl=DMSO = 100): individual biopsies, fig 4f
Protocol: Colonic biopsies or tissues were obtained during endoscopy or via surgical resection from Crohn’s Disease (CD) or Ulcerative Colitis (UC) patients (St Bartholomew’s Hospital, London). All patients gave informed written consent. For surgical specimens, the mucosa was dissected away from the submucosa and cut into pieces of ~10–20 mg. […] The supernatants were collected for cytokine measurement as detailed in cytokines assay section while tissues were used to determine RIPK2 levels.
Cytokine measurement assay: Cytokine levels were measured in rat plasma or rat PBMCs cell culture supernatants using rat V-Plex TNFα, in human plasma or human PBMCs cell culture supernatants with either TNFα tissue culture or 7-plex kit. Rat serum and tissues samples from the in vivo L18-MDP acute inflammation model were analyzed using the rat TNFα, Il-6 and IL-8 U-Plex kits. All kits provided by Meso Scale Discovery (MSD). Levels of cytokines spontaneously released from human colon biopsies cell culture supernatants were measured using Human IL-1 beta/IL-1F2 DuoSet ELISA (Bio-techne), Human IL-6 ELISA (Immunotools) and Human TNF-alpha DuoSet ELISA (Bio-techne). All samples were processed accordingly to the manufacturer’s instructions. The MSD plates were analyzed using the MSD sector imager 6000 plate reader and cytokines concentration (pg/ml) was obtained by using the MSD DISCOVERY WORKBENCH software version 4.0.12.1

[2] = test system: RIPK2; assay: In vivo RIPK2 degradation in rat (PBMCs isolated from blood, Western blot); conditions: for RIPK2: fig 5e, individual rats 6-10, time 0 = 100; for RIPK2 (time 0 = 100): rats 1-4, fig 5c
Protocol: Rat PK/PD studies: On arrival, all rats were housed in a plastic solid bottom cage in groups of 2–3 with access to food and water ad libitum and under a 12 h light–dark cycle. Male CD or Wistar Han rats (7–9 weeks old, Charles River UK Ltd.) were randomly allocated to treatment groups upon arrival. Female CD rats (7–8 weeks old on arrival, Charles River Ltd.) were placed into groups using a randomization schedule based on body weight prior to the study start. All animals were acclimatized for a minimum of one week prior to the experiment commencing.
Subcutaneous PROTAC solution formulations were prepared on the day of dosing as outlined below and filtered through a 0.22 µm Millex PVDF filter (Millipore) prior to PROTAC administration. PROTAC 4 was dissolved in saline with the pH adjusted to 5.0 with sodium hydroxide (1 M). […].
Ex vivo stimulation of rat blood with L18-MDP for PD: PPD blood samples taken prior to PROTAC administration or at fixed timepoints post PROTAC administration through the course of the study, were treated ex vivo with 100 ng/mL L18-MDP (Invivogen) or vehicle (0.1% DMSO) and incubated for 4 h. Following centrifugation, plasma was collected for cytokines analysis as detailed in cytokines assay section. Additionally, RIPK2 levels were determined in PBMCs isolated from blood and where collected, in sampled colon tissue as described in the text.
Blood was mixed with optiPREP (Sigma) and following centrifugation at 1300 × g the PBMCs layer was collected. For in vivo studies, RIPK2 levels were determined immediately via immunoblotting, whereas for in vitro studies PBMCs were treated as detailed in the in vitro treatment section.
Statistics and reproducibility: All data were represented as percentage of the control sample: DMSO treated cells for the in vitro assays and the pre-dose or vehicle sample for the in vivo experiments.
For in vivo studies, RIPK2:tubulin ratios and cytokine levels from each individual experiment were analysed either using a One-way ANOVA with Dunnet’s post-test or a two way ANOVA using GraphPad Prism 5.0.4 to determine statistical significance with 95% confidence levels.

[3] = test system: Caspases 3 and 7; assay: Caspase 3/7 activation in human PBMCs (Caspase-Glo 3/7), 24 h
[4] = Hepatocyte CLint, rat; type: in vitro ADME; conditions: rat liver hepatocytes
Protocol: Metabolic stability was performed at Cyprotex (UK). Pooled liver microsomes / cryopreserved pooled hepatocytes were purchased from a commercial supplier (BD Biosciences or Corning/InVitro Technologies).
The final incubation volume was 500 µL. An appropriate vehicle control was used. Each compound was incubated for 0, 5, 10, 20, 40, and 60 min. The control (vehicle) was incubated for 60 min.
All incubations were terminated by transferring 50 μL of incubate to 100 μL of acetonitrile containing internal standard at the appropriate time points. The termination plates were centrifuged at 2500 rpm for 20–30min at 4 °C to precipitate the protein. Following protein precipitation, samples were analysed using quantitative LC-MS/MS.

In the case of CN[C@@H](C)C(=O)N[C@H](C(=O)N1C[C@@H](NC(=O)c2cnc(N3CCN(CCCOc4cc5ncnc(Nc6n[nH]c(C)c6C)c5cc4S(=O)(=O)C(C)(C)C)CC3)cn2)C[C@H]1C(=O)Nc1c(F)cccc1F)C(C)(C)C [PROTAC 6], the IC50 ([1]; Homo sapiens, 24 h, read-out: IC50 inhibition of spontaneous cytokine release) is reported as 1 to 3 nM, the “IL-1b (Ctrl=DMSO = 100)” value ([1]; compound concentration 0.05 nM) is reported as 133 and 73 and 55 and the “IL-6 (Ctrl=DMSO = 100)” value ([1]; compound concentration 0.05 nM) is reported as 93 and 184 and 79 and 87 and 89 and 91. For the same compound, the “TNFa (Ctrl=DMSO = 100)” value ([1]; compound concentration 0.05 nM) was 89 and 94 (2×) and 80 and 99, the “IL-1b (Ctrl=DMSO = 100)” value ([1]; compound concentration 0.5 nM) was 74 and 22 and 52 and 46 and the “IL-6 (Ctrl=DMSO = 100)” value ([1]; compound concentration 0.5 nM) was 92 and 83 and 67 and 77 and 80 and 11 and 42. The “TNFa (Ctrl=DMSO = 100)” value ([1]; compound concentration 0.5 nM) was 130 and 71 and 83 and 70 and 41 and 86, the “IL-1b (Ctrl=DMSO = 100)” value ([1]; compound concentration 5 nM) was 49 and 88 and 62 (2×) and 28 and 58 and 77 and 41 and 55 and 30 and 27 (2×) and 11 and 37 and 67 and 54 and 44 and 40 and 39 and the “IL-6 (Ctrl=DMSO = 100)” value ([1]; compound concentration 5 nM) was 56 and 59 and 11 and 74 and 96 and 85 and 64 and 76 (2×) and 88 and 71 and 79 and 77 and 55 and 44 and 53 and 86 and 25 and 29. For the same compound, the “TNFa (Ctrl=DMSO = 100)” value ([1]; compound concentration 5 nM) was 36 and 47 and 58 and 65 and 88 and 75 and 56 and 78 and 49 and 67 (2×) and 48 and 31 and 86 and 41 and 66 and 57, the “IL-1b (Ctrl=DMSO = 100)” value ([1]; compound concentration 50 nM) was 38 and 22 and 12 (2×) and 95 and 26 and 24 and 43 and 15 and 68 and 21 and 1 and 23 and 39 and 18 and 7 and 11 and 34 and the “IL-6 (Ctrl=DMSO = 100)” value ([1]; compound concentration 50 nM) was 60 and 39 and 68 and 67 and 21 (2×) and 10 and 19 and 76 and 22 and 48 (2×) and 75 and 36 and 35 and 62 and 11 and 24. For the same compound, the “TNFa (Ctrl=DMSO = 100)” value ([1]; compound concentration 50 nM) was 28 and 33 (2×) and 29 (2×) and 4 and 49 and 47 and 53 and 35 and 57 (2×) and 60 and 15 and 56 and 46 and 19 and 25 and 65, the “RIPK2 level (time 0 = 100), unlabelled cell under rat 8” value ([2]; 0.005 mg/kg, equals the mean of the four other rats at 24 h, fig 5a) was 92.1904 and the “RIPK2 level (time 0 = 100)” value ([2]; 0.005 mg/kg, time 24 h, rats 6-10, fig 5a) was 71.58 and 92.75 and 127.25 and 77.18. For the same compound, the “RIPK2 level (time 0 = 100)” value ([2]; 0.005 mg/kg, time 48 h, rats 6-10, fig 5a) was 107.66 and 189.11 and 139.36 and 104.71 and 114.34, the “RIPK2 level (time 0 = 100)” value ([2]; 0.05 mg/kg, time 6 h, rats 11-15, fig 5a) was 60.71 and 118.09 and 89.04 and 78.70 and 85.87 and the “RIPK2 level (time 0 = 100)” value ([2]; 0.05 mg/kg, time 24 h, rats 11-15, fig 5a) was 70.75 and 59.91 and 86.01 and 67.12 and 70.61. The “RIPK2 level (time 0 = 100)” value ([2]; 0.5 mg/kg, time 72 h, rats 16-20, fig 5a) was 25.93 and 26.14 and 14.54 and 23.73 and 19.84, the RIPK2 ([2]; time 24 h) was 41.32 and 46.91 and 38.86 and 44.83 and 39.94 and the RIPK2 ([2]; time 72 h) was 55.66 and 38.00 and 35.30 and 41.29 and 38.74. The RIPK2 degradation ([2]; rat, 0.05 mg/kg/day QD SC, last time point) was > 70%, the RIPK2 degradation ([2]; rat, 0.5 mg/kg/day QD SC, 24 h) was ~ 70% and the RIPK2 degradation ([2]; rat, 0.5 mg/kg/day QD SC, last time point after third dose) was > 90%. For the same compound, the “effect on RIPK2 levels, in words” value ([2]; rat, single 0.005 mg/kg SC) was “no significant effect”, the “effect on RIPK2 protein levels, in words” value ([2]; rat, single 0.05 mg/kg SC) was “did not have a statistically significant effect” and the RIPK2 degradation ([2]; rat, single 0.5 mg/kg SC, 6 h post-dose) was 53 ± 9%. For the same compound, the RIPK2 degradation ([2]; rat, single 0.5 mg/kg SC, 48 h) was 78 ± 5%, the “RIPK2 (time 0 = 100)” value ([2]; time 6 h) was 85.25 and 86.14 and 86.72 and 88.07 and the “RIPK2 (time 0 = 100)” value ([2]; time 24 h) was 71.45 and 57.80 and 52.77 and 57.74. The “RIPK2 (time 0 = 100)” value ([2]; time 30 h) was 42.20 and 43.44 and 40.14 and 48.21, the “RIPK2 (time 0 = 100)” value ([2]; time 48 h) was 32.57 and 27.38 and 24.98 and 36.77 and the “RIPK2 (time 0 = 100)” value ([2]; time 54 h) was 24.47 and 24.71 and 23.45 and 32.20. The “effect on caspases 3/7 activation, in words” value [3] was “no”.
For CN[C@@H](C)C(=O)N[C@H](C(=O)N1CCC[C@H]1c1nc(C(=O)c2ccc(F)cc2)cs1)C1CCN(C(=O)c2cnc(N3CCN(CCOc4cc5ncnc(Nc6n[nH]c(C)c6C)c5cc4S(=O)(=O)C(C)(C)C)CC3)nc2)CC1 [PROTAC 4], the clearance in hepatocytes [4] was < 0.80 mL/min/g liver, the “RIPK2 level vs pre-dose, individual rat” value ([2]; 1 mg/kg SC, 14-day study, 8 h) was 71.55% and 45.26% and 58.63% and 60.59% and 55.33% and the “RIPK2 level vs pre-dose, individual rat” value ([2]; 1 mg/kg SC, 14-day study, 72 h) was 64.81% and 59.31% and 60.99% and 66.83% and 64.49%. For the same compound, the “RIPK2 level vs pre-dose, individual rat” value ([2]; 1 mg/kg SC, 14-day study, 240 h) was 112.79% and 70.63% and 104.75% and 126.83% and 102.52%, the “RIPK2 level vs pre-dose, individual rat” value ([2]; 5 mg/kg SC, 14-day study, 8 h) was 41.85% and 45.44% and 41.77% and 41.32% and 53.21% and the “RIPK2 level vs pre-dose, individual rat” value ([2]; 5 mg/kg SC, 14-day study, 72 h) was 34.61% and 30.18% and 38.68% and 37.78% and 36.11%. For the same compound, the “RIPK2 level vs pre-dose, individual rat” value ([2]; 5 mg/kg SC, 14-day study, 240 h) was 87.11% and 99.39% and 92.18% and 103.23% and 99.62%, the “RIPK2 level vs pre-dose, individual rat” value ([2]; 20 mg/kg SC single dose, 7-day study, 8 h) was 28.87% and 26.27% and 38.47% and 28.32% and 30.61% and the “RIPK2 level vs pre-dose, individual rat” value ([2]; 20 mg/kg SC single dose, 7-day study, 24 h) was 18.69% and 14.21% and 28.44% and 16.94% and 23.48%. The “RIPK2 level vs pre-dose, individual rat” value ([2]; 20 mg/kg SC single dose, 7-day study, 72 h) was 6.86% and 4.61% and 6.88% and 8.62% and 8.55%, the “RIPK2 level vs pre-dose, individual rat” value ([2]; 20 mg/kg SC single dose, 7-day study, 168 h) was 12.52% and 6.26% and 20.35% and 12.51% and 16.81% and the “RIPK2 level vs pre-dose, individual rat” value ([2]; 20 mg/kg SC, 14-day study, 8 h) was 37.50% and 45.03% and 47.72% and 58.85% and 77.11%. For the same compound, the “RIPK2 level vs pre-dose, individual rat” value ([2]; 20 mg/kg SC, 14-day study, 72 h) was 13.52% and 12.63% and 25.66% and 9.20% and 12.50%, the “RIPK2 level vs pre-dose, individual rat” value ([2]; 20 mg/kg SC, 14-day study, 240 h) was 60.06% and 118.48% and 58.34% and 98.90% and 86.42% and the RIPK2 degradation ([2]; rat, 14-day study, all dose levels (1, 5, 20 mg/kg SC), 8 h) was 40–60%. For the same compound, the “RIPK2 protein levels, in words” value ([2]; rat, 14-day study, each dose group, 240 h) was “returned to baseline levels”, the RIPK2 degradation ([2]; rat, single 20 mg/kg SC, 72 h) was > 80% and the RIPK2 degradation ([2]; rat, single 20 mg/kg SC, 168 h) was > 80%.
